# Laboratory results taken from ChEMBL document CHEMBL1201862, “PubChem BioAssay data set” (2004).
# The source made the active and inactive calls.
# Key:
# [1] = biological target: Luciferin 4-monooxygenase (Photinus pyralis, UniProt P08659); assay: firefly luciferase enzyme inhibitors, dose response, biochemical, luminescence (AID 1891)
# [2] = Luminescence Cell-Based Dose Confirmation HTS to Identify Inhibitors of Platelet Dense Granule Release. [Related pubchem assays: 1663 (Primary HTS), 1678 (Summary of Project)]; format: functional
# Coagulation factor XII = biological target: T1, Coagulation factor XII (Homo sapiens, UniProt P00748); format: functional;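 further: activated factor XIIa alpha cleaving a fluorogenic AMC peptide substrate; inhibitor potency from loss of enzyme activity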
# T1 sequence (P00748 whole entry): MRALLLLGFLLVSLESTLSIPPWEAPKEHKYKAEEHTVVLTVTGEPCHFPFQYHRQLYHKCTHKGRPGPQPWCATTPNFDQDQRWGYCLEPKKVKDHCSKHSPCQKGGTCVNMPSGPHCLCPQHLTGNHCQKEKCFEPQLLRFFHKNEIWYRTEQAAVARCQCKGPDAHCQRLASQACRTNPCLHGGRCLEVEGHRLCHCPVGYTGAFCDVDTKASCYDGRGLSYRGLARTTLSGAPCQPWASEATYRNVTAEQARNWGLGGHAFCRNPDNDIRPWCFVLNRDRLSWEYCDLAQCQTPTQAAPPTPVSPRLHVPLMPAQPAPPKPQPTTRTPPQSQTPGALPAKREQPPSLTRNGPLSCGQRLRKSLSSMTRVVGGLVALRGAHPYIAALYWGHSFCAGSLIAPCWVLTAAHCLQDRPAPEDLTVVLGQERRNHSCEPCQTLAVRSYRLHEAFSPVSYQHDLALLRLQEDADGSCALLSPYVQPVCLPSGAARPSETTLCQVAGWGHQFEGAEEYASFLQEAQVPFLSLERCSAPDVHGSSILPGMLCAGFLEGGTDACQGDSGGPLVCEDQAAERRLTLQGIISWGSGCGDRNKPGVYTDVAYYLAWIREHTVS
# [3] = cytotoxicity in HEK-293T cells, dose response, cytotoxicity control for BCR NF-kB inhibitor project, luminescence, B-cell screen hits (AID 489021); format: functional, cell-based;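 further: HEK-293T cells carrying an NF-kB luciferase reporter; cells exposed to compound for about 14 hours before viability readout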
# Estrogen receptor = biological target: T2, Estrogen receptor (Homo sapiens, UniProt P03372);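 further: potency for inhibiting coactivator peptide recruitment to the receptor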
# T2 sequence (P03372 whole entry): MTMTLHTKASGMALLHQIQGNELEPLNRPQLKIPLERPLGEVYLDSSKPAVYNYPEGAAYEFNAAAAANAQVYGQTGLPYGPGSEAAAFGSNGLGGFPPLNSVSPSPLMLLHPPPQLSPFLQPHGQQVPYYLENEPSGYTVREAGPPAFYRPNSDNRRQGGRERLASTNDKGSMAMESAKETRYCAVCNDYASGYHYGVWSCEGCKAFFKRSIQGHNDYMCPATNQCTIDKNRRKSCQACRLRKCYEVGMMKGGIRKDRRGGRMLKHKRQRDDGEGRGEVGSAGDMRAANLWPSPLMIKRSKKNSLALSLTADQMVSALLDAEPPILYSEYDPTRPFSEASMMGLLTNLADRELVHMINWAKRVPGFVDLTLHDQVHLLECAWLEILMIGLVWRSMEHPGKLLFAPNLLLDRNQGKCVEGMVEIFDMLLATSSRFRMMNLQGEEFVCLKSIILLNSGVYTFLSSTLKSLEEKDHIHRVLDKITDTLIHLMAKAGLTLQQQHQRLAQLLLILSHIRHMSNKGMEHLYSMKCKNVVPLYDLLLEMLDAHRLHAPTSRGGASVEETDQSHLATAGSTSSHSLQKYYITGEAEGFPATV
# [4] = inhibitors of SNCA 5'UTR-driven reporter translation, confirmation, H4 neuroglioma cells, luminescence (AID 1988); format: functional, cell-based
# [5] = inhibitors of firefly luciferase expression or activity, dose response, H4 neuroglioma cells, luminescence (AID 1990); format: functional, cell-based
# [6] = Luminescence Cell-Based Dose Response HTS to Identify Inhibitors of 5'UTR Stem-Loop Driven Prion Protein mRNA Translation in H4 Neuroglioblastoma Cells. [Related pubchem assays: 1827 (Project Summary), 1813 (Primary HTS)]; format: functional
# Leucine aminopeptidase = biological target: T3, Leucine aminopeptidase (Plasmodium falciparum 3D7, UniProt Q8IL11); assay: P. falciparum M17LAP inhibitors, primary screen, biochemical, fluorogenic H-Leu-NHMec substrate, 1536-well (AID 1619); format: functional
# T3 sequence (Q8IL11 whole entry): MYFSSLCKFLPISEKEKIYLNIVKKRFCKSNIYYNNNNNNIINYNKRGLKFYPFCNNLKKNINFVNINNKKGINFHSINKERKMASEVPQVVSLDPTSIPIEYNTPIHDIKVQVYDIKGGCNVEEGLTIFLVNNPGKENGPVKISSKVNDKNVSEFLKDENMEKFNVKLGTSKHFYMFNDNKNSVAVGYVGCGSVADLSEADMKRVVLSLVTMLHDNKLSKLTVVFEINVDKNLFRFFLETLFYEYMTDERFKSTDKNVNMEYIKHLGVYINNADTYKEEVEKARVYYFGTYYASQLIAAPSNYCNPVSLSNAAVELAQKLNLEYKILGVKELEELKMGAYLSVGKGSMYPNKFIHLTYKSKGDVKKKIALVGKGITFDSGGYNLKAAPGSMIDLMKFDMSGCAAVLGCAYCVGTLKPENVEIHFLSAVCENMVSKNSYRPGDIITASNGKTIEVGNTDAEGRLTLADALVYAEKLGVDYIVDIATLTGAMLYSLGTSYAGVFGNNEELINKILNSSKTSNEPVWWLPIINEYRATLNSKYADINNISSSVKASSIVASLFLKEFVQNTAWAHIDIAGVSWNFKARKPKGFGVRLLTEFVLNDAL
# [7] = biological target: T4, Carboxy-terminal domain RNA polymerase II polypeptide A small phosphatase 1 (Homo sapiens, UniProt Q9GZU7); assay: inhibitors of CTDSP1, concentration-response testing, biochemical assay, absorbance-based, actives from ultra-high-throughput screening (AID 540297); format: functional
# T4 sequence (Q9GZU7 whole entry): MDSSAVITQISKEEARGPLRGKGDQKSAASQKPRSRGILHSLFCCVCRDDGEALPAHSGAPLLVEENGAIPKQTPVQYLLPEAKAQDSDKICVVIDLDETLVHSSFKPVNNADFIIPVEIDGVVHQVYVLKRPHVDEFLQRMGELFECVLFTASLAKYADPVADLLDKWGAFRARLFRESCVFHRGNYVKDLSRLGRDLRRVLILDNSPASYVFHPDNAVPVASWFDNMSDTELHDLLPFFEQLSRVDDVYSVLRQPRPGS
# [8] = biological target: Induced myeloid leukemia cell differentiation protein Mcl-1 (Homo sapiens, UniProt Q07820); format: functional
# [9] = biological target: T5, Microphthalmia-associated transcription factor (Homo sapiens, UniProt O75030); assay: TRPM1 promoter luciferase signal decrease, dose response, MITF inhibitor project, cell-based, SK-MEL-5, cherry-picked, set 3 (AID 493073); format: functional
# T5 sequence (O75030 whole entry): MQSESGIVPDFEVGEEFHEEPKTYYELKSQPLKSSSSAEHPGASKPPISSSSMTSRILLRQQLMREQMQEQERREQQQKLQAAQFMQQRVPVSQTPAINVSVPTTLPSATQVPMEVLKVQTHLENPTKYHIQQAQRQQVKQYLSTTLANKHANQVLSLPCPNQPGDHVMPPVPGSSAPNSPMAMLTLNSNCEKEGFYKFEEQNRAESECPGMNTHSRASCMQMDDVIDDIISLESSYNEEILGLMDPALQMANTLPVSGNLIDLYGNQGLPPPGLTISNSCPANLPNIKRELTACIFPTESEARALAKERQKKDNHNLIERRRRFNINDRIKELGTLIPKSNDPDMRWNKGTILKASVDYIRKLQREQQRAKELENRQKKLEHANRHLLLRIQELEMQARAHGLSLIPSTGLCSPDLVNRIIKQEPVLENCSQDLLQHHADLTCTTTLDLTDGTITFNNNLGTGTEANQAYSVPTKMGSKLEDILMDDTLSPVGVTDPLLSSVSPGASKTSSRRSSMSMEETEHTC
# Cytochrome P450 2C9 = Cytochrome P450 2C9 (Homo sapiens, UniProt P11712)
# Cytochrome P450 1A2 = biological target: T6, Cytochrome P450 1A2 (Homo sapiens, UniProt P05177);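 further: PubChem cytochrome P450 panel assay, CYP1A2 panel member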
# T6 sequence (P05177 whole entry): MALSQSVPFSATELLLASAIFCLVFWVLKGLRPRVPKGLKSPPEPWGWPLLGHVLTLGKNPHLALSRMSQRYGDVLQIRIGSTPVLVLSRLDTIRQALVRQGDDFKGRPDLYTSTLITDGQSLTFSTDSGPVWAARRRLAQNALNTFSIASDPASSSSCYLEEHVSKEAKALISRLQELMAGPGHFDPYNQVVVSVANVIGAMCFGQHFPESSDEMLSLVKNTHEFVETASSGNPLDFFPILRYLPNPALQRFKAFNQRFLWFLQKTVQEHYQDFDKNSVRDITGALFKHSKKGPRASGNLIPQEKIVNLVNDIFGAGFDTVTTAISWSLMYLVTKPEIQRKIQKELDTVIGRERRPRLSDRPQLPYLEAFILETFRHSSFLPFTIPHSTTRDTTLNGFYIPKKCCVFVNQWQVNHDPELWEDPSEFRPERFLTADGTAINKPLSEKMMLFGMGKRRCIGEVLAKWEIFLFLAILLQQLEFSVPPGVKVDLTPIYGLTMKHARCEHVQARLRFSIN
# cells = format: functional
# Sequence of Luciferin 4-monooxygenase (P08659 whole entry): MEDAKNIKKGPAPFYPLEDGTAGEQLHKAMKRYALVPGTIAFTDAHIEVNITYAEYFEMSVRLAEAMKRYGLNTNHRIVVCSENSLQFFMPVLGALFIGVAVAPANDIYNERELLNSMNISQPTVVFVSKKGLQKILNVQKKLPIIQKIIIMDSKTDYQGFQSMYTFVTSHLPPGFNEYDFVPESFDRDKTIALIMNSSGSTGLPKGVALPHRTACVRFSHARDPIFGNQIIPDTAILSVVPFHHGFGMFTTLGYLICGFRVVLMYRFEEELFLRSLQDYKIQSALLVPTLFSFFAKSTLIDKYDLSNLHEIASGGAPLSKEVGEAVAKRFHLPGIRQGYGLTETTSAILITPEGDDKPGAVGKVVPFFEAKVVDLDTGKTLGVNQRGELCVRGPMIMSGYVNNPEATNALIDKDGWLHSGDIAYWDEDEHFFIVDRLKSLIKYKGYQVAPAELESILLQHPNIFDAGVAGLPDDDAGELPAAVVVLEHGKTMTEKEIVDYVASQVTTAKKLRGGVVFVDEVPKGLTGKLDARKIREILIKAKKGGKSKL
# Sequence of Induced myeloid leukemia cell differentiation protein Mcl-1 (Q07820 whole entry): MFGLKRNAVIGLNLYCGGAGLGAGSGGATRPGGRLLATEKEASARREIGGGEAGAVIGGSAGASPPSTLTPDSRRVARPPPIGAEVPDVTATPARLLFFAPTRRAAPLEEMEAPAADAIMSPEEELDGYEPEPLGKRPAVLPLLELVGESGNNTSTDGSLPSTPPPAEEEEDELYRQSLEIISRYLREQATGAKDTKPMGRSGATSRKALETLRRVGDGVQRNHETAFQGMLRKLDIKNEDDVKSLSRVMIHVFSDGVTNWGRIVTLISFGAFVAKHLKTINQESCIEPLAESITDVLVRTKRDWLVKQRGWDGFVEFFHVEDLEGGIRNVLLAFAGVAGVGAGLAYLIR
# Sequence of Cytochrome P450 2C9 (P11712 whole entry): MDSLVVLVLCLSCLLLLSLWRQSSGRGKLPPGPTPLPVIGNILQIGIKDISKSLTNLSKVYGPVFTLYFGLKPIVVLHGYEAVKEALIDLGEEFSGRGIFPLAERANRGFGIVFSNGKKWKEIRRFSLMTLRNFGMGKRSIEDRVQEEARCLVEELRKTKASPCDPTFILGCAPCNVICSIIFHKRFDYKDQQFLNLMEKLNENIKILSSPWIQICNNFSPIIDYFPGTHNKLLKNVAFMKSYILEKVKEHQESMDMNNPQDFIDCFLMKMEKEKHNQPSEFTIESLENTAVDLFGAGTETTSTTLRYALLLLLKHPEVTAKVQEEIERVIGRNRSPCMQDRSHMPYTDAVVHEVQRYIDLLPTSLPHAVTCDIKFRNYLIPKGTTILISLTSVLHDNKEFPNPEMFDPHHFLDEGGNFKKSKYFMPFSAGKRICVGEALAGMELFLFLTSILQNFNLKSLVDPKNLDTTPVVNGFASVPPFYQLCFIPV
compound,measurement,setting,value
COc1ccc(S(=O)(=O)NCC(c2cccnc2)N2CCN(C)CC2)cc1C (centres undefined),EC50,[1],> 112 µM (not active)
same,EC50,[2],> 112 µM (not active)
CC(C)(C)SCCNS(=O)(=O)c1ccccc1,IC50,Coagulation factor XII,> 50 µM (inactive)
Cc1ccc2sc(NC(=O)C3CC3)nc2c1C,EC50,[1],> 112 µM (not active)
same,EC50,[2],> 112 µM (not active)
O=C(CSc1nc2ccccc2s1)NC1CCCC1,IC50,Coagulation factor XII,> 50 µM (inactive)
CCOC(=O)C1CCN(c2ncnc3c2cnn3-c2ccc(OC)cc2)CC1,IC50,[3],> 80 µM (inactive)
O=C(c1cccnc1)C1CCCN(Cc2nc(-c3cnccn3)no2)C1 (centres undefined),IC50,Coagulation factor XII,> 50 µM (inactive)
O=C1NC(=O)N(Cc2ccco2)C(=O)/C1=C/NC1CC1,EC50,[1],> 112 µM (not active)
same,EC50,[2],> 112 µM (not active)
CCOC(=O)c1c(-c2ccc(C)o2)csc1N,EC50,[1],> 112 µM (not active)
same,EC50,[2],> 112 µM (not active)
Cc1ccc(-c2nn3c(C)nnc3c3ccccc23)cc1S(=O)(=O)NC(C)(C)CO,IC50,[3],> 80 µM (inactive)
COc1cccc(C(c2sc3nc(C)nn3c2O)N2CCN(c3ccccc3F)CC2)c1 (centres undefined),EC50,[1],> 112 µM (not active)
same,EC50,[2],> 112 µM (not active)
COC(=O)c1cc(NC(=O)Cn2c(=O)cnc3ccccc32)cc(C(=O)OC)c1,IC50,Estrogen receptor,> 50 µM (not active)
Cc1nc2cc(-c3ccccc3)nn2c(C)c1CCC(=O)N1CCC2(CC1)OCCO2,EC50,[4],0.259 µM (active)
same,IC50,[3],> 80 µM (inactive)
same,EC50,[5],< 0.1 µM (active)
same,EC50,[6],14.6 µM (active)
CCOc1c(Br)cc(CNc2nc[nH]n2)cc1OC,IC50,Leucine aminopeptidase,22.7 µM (active)
Cc1nnc(SCC(=O)NC(=O)NCc2ccco2)n1Cc1ccccc1,IC50,Estrogen receptor,< 1.56 µM (active)
same,IC50,[7],5.15 µM (active)
Cc1ccc(-n2nc(C)cc2NC(=O)COc2cc(C)cc3oc(=O)c4c(c23)CCC4)cc1,IC50,[8],< 0.4 µM (not active)
O=C(CCl)N1CCN(S(=O)(=O)c2ccc3c(c2)CCC3)CC1,IC50,[3],> 80 µM (inactive)
same,AC50,[9],20.7 µM (active)
Oc1ccc(C2c3sc(O)nc3SC3C4CCC(C4)C23)cc1 (centres undefined),IC50,Estrogen receptor,> 50 µM (not active)
CC1(C)Cc2c(sc3c4nnnn4c4nnnn4c23)CO1,IC50,Estrogen receptor,4.11 µM (active)
O=C1NC(=O)N(Cc2ccccc2)C(=O)/C1=C\c1ccco1,IC50,Leucine aminopeptidase,62.3 µM (active)
COc1ccc(-c2ccc(C)cc2)cc1[C@H]1[C@H]2C=CC[C@@H](C)[C@@H]2C(=O)N1Cc1ccccc1,IC50,[3],> 80 µM (inactive)
Cc1ccc(-c2c(C#N)c(N)n(-c3ccccc3)c(=O)c2C#N)cc1,EC50,[1],> 112 µM (not active)
same,AC50,Cytochrome P450 2C9,7.94 µM (inconclusive)
same,EC50,[2],3.25 µM (active)
same,AC50,Cytochrome P450 1A2,11.2 µM (inconclusive)
O=C1CN(Cc2ccccc2)/C(=N\Cc2ccco2)S1,IC50,Coagulation factor XII,> 50 µM (inactive)
NC(=S)n1[nH]c(-c2ccc([N+](=O)[O-])cc2)c(/N=N/c2ccc(O)cc2)c1=O,IC50,Estrogen receptor,11 µM (active)
same,IC50,cells,49.6 µM (active)
same,IC50,[8],3.47 µM (active)
N[C@@H](Cc1cc(I)c(Oc2ccc(O)c(I)c2)c(I)c1)C(=O)O [LIOTHYRONINE SODIUM],IC50,[8],14.7 µM (active)
